Source: patent US20120225123A1, “Use of Synergistic Combinations of an Avermectin and an Antineoplastic Compounds for the Treatment of Hematological Malignancies” (UNIVERSITY HEALTH NETWORK, priority 2009, published 2012)

Experiments:
OCI-AML2 cells [1] = test: Reactive oxygen species, Carboxy-H2DCFDA staining, OCI-AML2; format: cell-based, human; details: increasing concentrations, flow cytometry
Protocol: Data were analyzed with FlowJo version 8.8 (TreeStar, Ashland, Oreg.).

OCI-AML2 cells [2] = test: Cytosolic calcium, Indo-1 AM staining; format: cell-based, human
Protocol: Changes in cytosolic calcium concentration were detected with the fluorescent dye, Indo-1 AM (final concentration 6 μM) as previously described. ^17
Plasma membrane hyperpolarization can lead to calcium influx^23. Therefore, the effects of IVM on calcium influx in leukemia cells was tested. OCI-AML2 cells were treated with IVM and the concentration of intracellular calcium was measured by staining cells with the ratiometric dye, Indo-1 AM.

[3] = system: U937 and TEX leukemia cells as well as primary AML cells; test: Plasma membrane potential, DiBAC4(3) staining, sensitive cells; format: cell-based, human; details: after ivermectin treatment
Protocol: (§1) Plasma membrane potential was measured as previously described.^18 Briefly, cells treated with IVM or buffer control in RPM1, chloride replete medium (140 mM sodium chloride, 5 mM potassium chloride, 1 mM magnesium sulfate, 1.8 mM calcium acetate, 10 mM glucose, 10 mM HEPES and 0.1% (wt/v) BSA), or chloride free media where equimolar gluconate salts of sodium and potassium replaced the sodium chloride in the chloride replete medium. After incubation, cells were stained with DiBAC4(3) (final concentration 30 nM) and fluorescence determined by flow cytometry (BD FACS Canto, Becton Dickinson, San Jose, Calif.) (excitation=488 nm, emission=516 nm) Analysis was conducted using FACSDiva Software (BD Biosciences). Calibration curves were prepared using phosphate buffers with varying potassium ion concentrations as previously described.^18
(§2) In nematodes, increases in intracellular chloride after IVM treatment cause membrane hyperpolarization. Therefore, the effects of IVM on plasma and mitochondrial membrane polarization was evaluated in leukemia cells. […] At increasing times after incubation, plasma membrane potential was measured by staining cells with DiBAC4(3) and flow cytometric analysis.

[4] = cited from earlier work
[5] = system: OCI-AML2, HL60, and KG1a leukemia cell lines; test: Chemical screen for cytotoxic compounds, MTS assay; format: cell-based, human; details: 72 hours, all cell lines in the screen, read-out: EC50, reduced cell viability
Protocol: HL60, KG1a, and OCI-AML2 leukemia cells were seeded into 96-well polystyrene tissue culture plates (Nunc). After seeding, cells were treated with aliquots of the chemical library (=100) at increasing concentrations (3 to 50 μM) with a final DMSO concentration of 0.5%. Seventy two hours after incubation, cell growth and viability was measured by the MTS assay. Liquid handling was performed by a Biomek FX Laboratory Automated Workstation (Beckman Coulter Fullerton, Calif.).
(§3) Cell growth and viability was assessed by the MTS assay (Promega, Madison, Wis.) according to the manufacturer's instructions and as previously described.^12 Cell death was measured by Annexin V-fluoroscein isothiocyanate (FITC) and Propidium Iodide (PI; Biovision Research Products, Mountain View, Calif.) staining and flow cytometry according to the manufacturer's instructions and as previously described.^13 To identify CD34+ cells, a normal PBSC sample was co-stained with PE-anti-CD34+ (Beckman Coulter, Marseille France), and APC-anti-CD45 (Becton Dickenson, San Jose Calif.).
A small chemical library (n=100) focused on anti-microbials and metabolic regulators with wide therapeutic windows and well understood pharmacokinetics was compiled. […] Seventy two hours after incubation, cell growth and viability was measured by the MTS assay. […]

[6] = system: panel of 5 leukemia cell lines; test: Cell growth and viability by MTS assay in a panel of leukemia cell lines; format: cell-based; details: 72 hours, read-out: EC50, decreased viability
Protocol: as §3
Having identified IVM in the chemical screens, the effects of IVM on cell growth and viability was tested in a panel of leukemia, cell lines. The effects of ivermectin on cell growth and viability in a panel of 5 leukemia cell lines were tested. Cells were treated with increasing concentrations of ivermectin and 72 hours after incubation, cell growth and viability were assessed by the MTS assay. Ivermectin decreased the viability of the tested leukemia cell lines with an EC50 of approximately 5 μM (FIG. 1B). The loss of viability was detected at 24 hours after treatment and increased in a time dependent manner. Cell death and apoptosis were confirmed by Annexin V and PI staining (FIG. 1C). […] (FIG. 1F).

[7] = system: DU145 and PPC-1 cells as well as primary normal hematopoietic cells; test: Plasma membrane potential, DiBAC4(3) staining, resistant cells; format: cell-based, human; details: up to 6 μM for up to 24 hours
Protocol: as §1, §2

[8] = system: OCI-AML2, K562 and MDAY-D2 leukemia cells in NOD/SCID mice; test: Mouse models of leukemia, subcutaneous tumors, oral ivermectin; format: in vivo
Protocol: MDAY-D2 murine leukemia cells, and K562 and OCI-AML2 human leukemia cells (2.5×10^5) were injected subcutaneously into both flanks of sub-lethally irradiated (3.5 Gy) NOD/SCID mice (Ontario Cancer
Institute, Toronto, ON). Four (OCI-AML2), five (MDAY-D2), or seven (K562) days after injection, once tumors were palpable, mice were then treated daily for 10 days (K562) or treated with 8 doses over 10 days (OCI-AML2) with IVM (3 mg/kg) by oral gavage in water or vehicle control (n=10 per group). […] Tumor volume (tumor length x width^2×0.5236) was measured three times a week using calipers. Fourteen (MDAY-D2), 15 (OCI-AML2) or 17 (K562) days after injection of cells, mice were sacrificed, tumors excised and the volume and weight of the tumors were measured.
Given the effects of IVM as a potential anti-leukemic agent, IVM was evaluated in mouse models of leukemia. Human leukemia (OCI-AML2 and K562) and murine leukemia (MDAY-D2) cells (MDAY-D2, OCI-AML2 and K562) were injected subcutaneously into the flank of NOD/SCID mice. Four (OCI-AML2), five (MDAY-D2), or seven (K562) days after injection, once tumors were palpable, mice were then treated daily for 10 days (K562) or treated with 8 doses over 10 days (OCI-AML2) with IVM (3 mg/kg) by oral gavage in water or vehicle control (n=10 per group). […] Tumor volume and weight was measured over time.

[9] = healthy male volunteers, 14 mg capsule of radiolabelled ivermectin
[10] = onchocerciasis patients, single oral dose of 150 μg/kg

ivermectin
ROS production (OCI-AML2 cells [1]): increased ROS production
intracellular calcium (OCI-AML2 cells [2]): increased intracellular calcium
plasma membrane potential [3]: demonstrated plasma membrane hyperpolarization
time over which IVM and/or metabolites are excreted in the feces ([4]; estimated): ~12 days
half-life [4, 9]: 11.8 h
mean Tmax [4, 9]: 6 h
administered dose excreted in the urine ([4]; in vivo): < 1%
area under the curve over 48 hours [4, 10]: 2852 ng·h/mL
maximum plasma concentration [4, 10]: 52.0 ng/mL
time to maximum plasma concentration [4, 10]: 5.2 h
EC50 [5]: < 10 µM
EC50 [6]: ~5 µM
plasma membrane potential [7]: did not show changes in their plasma membrane potential
tolerability ([8]; MDAY-D2 mice, dosage escalated 3 to 6 mg/kg): well tolerated
decrease in tumor weight and volume compared to buffer control ([8]; oral gavage 3 mg/kg (MDAY-D2 escalated to 6 mg/kg), all 3 models, p<0.05): up to 70%
gross organ toxicity ([8]; oral ivermectin, all 3 models): without any gross organ toxicity
